In patent US4220795A, “Cyclobutyl substituted derivatives of prostaglandin analogs” (Miles Laboratories, Inc., priority 1978, dated 1980):
≈ marks a conversion by molar mass, not a printed value.

Experiments:
femoral blood flow = assay: Effects on Femoral Blood Flow in the Dog (Test C); assay type: in vivo, dog (mongrel); details: anesthetized dog, intraarterial 0.001 to 10 mcg
Procedure: C. Evaluation of the Effects of Prostaglandin Analogs III on the Femoral Blood Flow in the Dog
The peripheral vasodilator or constrictor effects of test compounds were determined in mongrel dogs of either sex, weighing between 10 and 20 kg anesthestized intravenously with 35 mg/kg of sodium pentobarbital. An external iliac artery was dissected immediately above the femoral arch for a length of approximately 5 cm and a previously calibrated, non-connulating electromagnetic flowmeter sensor with a lumen between 2.5 and 3.5 mm was placed snugly around the vessel. Cannulas were placed in a branch of the artery arising distally to the location of the flowmeter sensor for intraarterial drug administrations, in the contralateral femoral artery for systemic blood pressure recordings and in the trachea for artificial respiration with room air. Femoral blood flow and systemic blood pressure were continuously recorded with an electromagnetic flowmeter and pressure transducer, respectively.
After an adequate control period, test compounds were injected intraarterially at one log-spaced doses ranging from 0.001 to 10 mcg., in a volume of 0.5 ml and at 5 to 10 min intervals. Maximum changes in bloodflow, as well as any variations in blood pressure, were tabulated for each dose in absolute values (ml/min and mmHg). The calculations were made taking as control values those existing immediately before administration of each dose. The direction of the observed change (+ for increase and - for decrease) was also noted. The dose changing bloodflow by 100 ml/min (ED100 ml/min) was calculated graphically and was used for scoring activity as follows: […]

[1] = system: blood pressure (hypertensive rat); assay: Effects on Blood Pressure in the Hypertensive Rat (Test E); assay type: in vivo; design: key: 0: Not significant at any time interval; 1: Significant at one time interval; 2: Significant at two time intervals; 3: Significant at three time intervals; 4: Significant at all four intervals; details: 1 mg/kg intraperitoneal, 2, 4, 6 and 8 hr
Procedure: E. Evaluation of the Effects of Prostaglandin Analogs III on Blood Pressure in the Hypertensive Rat
The acute antihypertensive activity of test compounds is determined in rats made hypertensive by the procedure of Grollman (A. Proc. Soc. Exper. Biol. Med., 57:102, [1944]). Female rats weighing between 60 and 100 g are anesthetized with ether, the right kidney approached through a flank retroperitoneal incision, decapsulated and tied with a figure-of-eight ligature. The animals are left to recover and two weeks later are again anesthetized and the contralateral kidney removed. Four weeks after the second operation the rats are subjected to indirect blood pressure measurements and those showing systolic pressure values greater than 160 mmHg are selected for drug testing.
Blood pressure is measured in the tail with an inflatable occluding cuff placed at the base of the extremity and a pulse detector located distally. The cuff is inflated to approximately 300 mmHg and is slowly deflated until pulsations appear, indicating the level of systolic pressure; diastolic pressure is not recorded by this procedure. All measurements are carried out in unanesthetized, unsedated animals maintained in a warm environment during the recording procedure and for at least 6 hr before. In all cases, three pressure readings are obtained in succession and mean values are calculated thereof.
Experiments are carried out in groups of five hypertensive rats in which systolic pressure is determined immediately before and 2, 4, 6 and 8 hr after the intraperitoneal administration of the test compound at a dose of 1 mg/kg. Drugs are diluted from stock solutions with phosphate buffer (Lee et al., Prostaglandins 3:29 [1973]), so as to inject this quantity in a volume of 1 ml/kg. Changes from control blood pressure values are calculated for each interval both in mmHg and in per-cent, and evaluated for significance by means of Wilcoxon's signed rank test (Wilcoxon and Wilcox, Some rapid approximate statistical procedures, Lederle Laboratories, Pearl River [1964]).

rat uterus = assay: Effects on the Rat Uterus (Test F); details: rat uterus segments, 0.001 to 10.0 mcg/ml, 29° C.; read-out: Activity value, Test F: Effects on Rat Uterus (ED50, response of 50% that of carbachol)
Procedure: F. Evaluation of the Effects of Prostaglandin Analogs III on the Rat Uterus
The uterine stimulant effect of test compounds is determined in segments of uterus obtained from rats (140-160 g) pretreated subcutaneously with 1 mg/kg of diethylstibesterol 18 hr before the experiment. The tissues are placed in 10 ml chambers filled with de-Jalon solution at 29° C. and bubbled with 95% O2 and 5% CO2, and prepared for isometric recording with force displacement transducers. Preparations are stretched to an initial tension of 1 g and are left undisturbed for 30 min, after which two responses to 1 mcg/ml of carbachol added to the bath at a 10 min interval, are obtained (the value of the second response is recorded). Responses to increasing concentrations of the test compound (0.001 to 10.0 mcg/ml with one log intervals) are then recorded every 10 min. Preparations are washed four times after each response. All doses of drugs are administered in a 0.1 ml volume. Since it has been observed that the magnitude of the second response to carbachol, which is approximately 10% greater than the first, is close to the maximal response of the tissue, such value is taken as a measure of the sensititity of the particular segment. Responses to each concentration of the test compound are expressed in terms of percentage of the second response to carbachol and the ED50 (dose producing a response of 50% that of carbachol) is calculated graphically. Activity is scored according to the following scale: […]

blood pressure = assay: Effects on Blood Pressure and Heart Rate in the Anesthetized Cat (Test D); assay type: in vivo; details: Felis catus, iv, i.v. 0.01 to 10.0 mcg/kg, scored on hypotension, read-out: Activity value, Test D: Normal Feline Blood Pressure and Heart Rate (ED50 mmHg)
Procedure: D. Evaluation of the Effects of Prostaglandin Analogs III on Blood Pressure and Heart Rate in the Anesthetized Cat
The acute effects of test compounds on blood pressure and heart rate were determined in cats of either sex anesthetized with a mixture of pentobarbital sodium (35 mg/kg, i.v.) and barbital sodium (100 mg/kg, i.v.). Cannulas were placed in the trachea to allow adequate spontaneous ventilation, in a femoral artery for blood pressure recording with a strain gage transducer, and in a saphenous vein for drug administration. Heart rate was recorded by means of a cardiotachometer driven by the R wave of the electrocardiogram. After a period of 10 min of stable recordings of blood pressure and heart rate, the test compound was administered intravenously at doses increasing from 0.01 to 10.0 mcg/kg, spaced one log and injected at 10 min intervals. All doses were injected in a volume of 0.1 ml/kg. Modifications of blood pressure and heart rate induced by the test compound were expressed both in absolute units (mmHg and beats/min) and as percent of values recorded immediately before administration of each dose. Biphasic responses were tabulated in the order in which they occur. The direction of the observed changes was also noted (+ for increase and - for decrease).
Activity of compounds in this test was judged only on the basis of the degree of hypotension observed. Thus, the ED50 mmHg (dose decreasing blood pressure by 50 mmHg) was calculated graphically and the compound scored according to the following scale: […]

| SMILES | EC50 (rat uterus) | Activity value, Test C: Increase in Canidae Femoral Blood Flow (ED100 ml/min) (femoral blood flow) | Activity value, Test E: Effects on Blood Pressure in Hypertensive Rat (blood pressure decrease) [1] | ED (50 mmHg) (blood pressure) |
| --- | --- | --- | --- | --- |
| CCC1CC([C@@H](O)/C=C/[C@H]2C=CC(=O)[C@@H]2CCCCCCCOC(C)=O)C1 (stereo partly drawn) [TR-4568, 1-Acetoxy-15R-hydroxy-16,18-methanoprosta-10,13E-dien-9-one] | > 10 µg/mL | 0 (>10.0) | 0 | > 0.0101 mg/kg |
| CCCCC1([C@H](O)/C=C/[C@H]2[C@H](O)CC(=O)[C@@H]2CCCCCCCO)CCC1 [TR-4645, 16,16-Propano-1,11α,15R-trihydroxyprost-13E-en-9-one] | > 10 µg/mL | 1 (1.0.-10.0) | 0 | > 0.0101 mg/kg |
| CCCCC1([C@@H](O)/C=C/[C@H]2[C@H](O)CC(=O)[C@@H]2CCCCCCCO)CCC1 [TR-4646, 16,16-Propano-1,11α,15S-trihydroxyprost-13E-en-9-one] | > 10 µg/mL | 0 (>10.0) | 0 | > 0.0101 mg/kg |
| CC1([C@H](O)/C=C/[C@H]2[C@H](O)CC(=O)[C@@H]2CCCCCCCO)CCC1 [TR-4673, 16,19-Cyclo-16-methyl-20-nor-1,11α,15R-trihydroxyprost-13E-en-9-one] | > 10 µg/mL | 0 (>10.0) | 1 | > 0.0101 mg/kg |
| CCCCC1([C@@H](O)/C=C/[C@H]2[C@H](O)CC(=O)[C@@H]2CCCCCCC(=O)OC)CCC1 [TR-4677, Methyl 11α,15S-dihydroxy-9-oxo-16-,16-propanoprost-13E-en-1-oate] | 0.01 to 0.1 µg/mL (≈ 0.0245 to 0.245 µM) | 0 (>10.0) | 0 | > 0.0101 mg/kg |
| CCC1CC(C)([C@H](O)/C=C/[C@H]2[C@H](O)CC(=O)[C@@H]2CCCCCCCO)C1 (stereo partly drawn) [TR-4688, 16,18-Methano-16-methyl-1,11α,15R-trihydroxyprost-13E-en-9-onc] | > 10 µg/mL | 0 (>10.0) | 0 | > 0.0101 mg/kg |
| COC(=O)CCCCCC[C@H]1C(=O)C[C@@H](O)[C@@H]1/C=C/[C@@H](O)C1(C)CCC1 [TR-4690, Methyl 16,19-cyclo-11α,15R-dihydroxy-16-methyl-20-nor-9-oxoprost-13E-en-1-oate] | > 10 µg/mL | 2 (0.11-1.0) | 0 | 0.00101 to 0.01 mg/kg |
| COC(=O)CCCCCC[C@H]1C(=O)C[C@@H](O)[C@@H]1/C=C/[C@H](O)C1(C)CCC1 [TR-4691, Methyl 16,19-cyclo-11α,15S-dihydroxy-16-methyl-20-nor-9-oxoprost-13E-en-1-oate] | > 10 µg/mL | 2 (0.11-1.0) | 0 | > 0.0101 mg/kg |

Continued, in another order:

| EC50 (rat uterus) | SMILES | Activity value, Test C: Increase in Canidae Femoral Blood Flow (ED100 ml/min) (femoral blood flow) | Activity value, Test E: Effects on Blood Pressure in Hypertensive Rat (blood pressure decrease) [1] | ED (50 mmHg) (blood pressure) |
| --- | --- | --- | --- | --- |
| 0.101 to 1 µg/mL (≈ 0.265 to 2.63 µM) | CCC1CC([C@@H](O)/C=C/[C@H]2[C@H](O)CC(=O)[C@@H]2CCCCCCC(=O)OC)C1 (stereo partly drawn) [TR-4248, Methyl 11α,15R-dihydroxy-16,18-methano-9-oxoprost-13E-en-1-oate] | 2 (0.11-1.0) | 1 | 0.00011 to 0.001 mg/kg |
| > 10 µg/mL | CCC1CC([C@H](O)/C=C/[C@H]2[C@H](O)CC(=O)[C@@H]2CCCCCCC(=O)OC)C1 (stereo partly drawn) [TR-4249, Methyl 11α,15S-dihydroxy-16,18-methano-9-oxoprost-13E-en-1-oate] | 0 (>10.0) | 0 | > 0.0101 mg/kg |
| > 10 µg/mL | CCC1CC([C@@H](O)/C=C/[C@H]2[C@H](O)CC(=O)[C@@H]2CCCCCCCO)C1 (stereo partly drawn) [TR-4569, 16,18-Methano-1,11α,15R-trihydroxyprost-13E-en-9-one] | 0 (>10.0) | 0 | > 0.0101 mg/kg |
| 0.101 to 1 µg/mL (≈ 0.287 to 2.84 µM) | CCC1CC([C@H](O)/C=C/[C@H]2[C@H](O)CC(=O)[C@@H]2CCCCCCCO)C1 (stereo partly drawn) [TR-4570, 16,18-Methano-1,11α,15S-trihydroxyprost-13E-en-9-one] | 0 (>10.0) | 0 | > 0.0101 mg/kg |
| > 10 µg/mL | CCC1CC(C)([C@@H](O)/C=C/[C@H]2[C@H](O)CC(=O)[C@@H]2CCCCCCC(=O)OC)C1 (stereo partly drawn) [TR-4682, Methyl 11α,15S-dihydroxy-16,18-methano-16-methyl-9-oxoprost-13E-en-1-oate] | 3 (0.01-0.1) | 0 | 0.00101 to 0.01 mg/kg |
